In patent US20240423207A1, “PICOLINAMIDE COMPOUNDS WITH FUNGICIDAL ACTIVITY” (CORTEVA AGRISCIENCE LLC, priority 2014, published 2024):
Read-outs that look alike come from different tables or passages of the source.

What was measured:
[1] = tested on: Mycosphaerella graminicola; Anamorph: Septoria tritici; assay: Leaf Blotch of Wheat (SEPTTR) fungicidal activity on wheat seedlings; assay type: in vivo; settings: Zymoseptoria tritici, Low Volume, 121.5 g/H
Protocol: Example A: Evaluation of Fungicidal Activity: Leaf Blotch of Wheat (Mycosphaerella graminicola; Anamorph: Septoria tritici; Bayer code […]): Technical grades of materials were dissolved in acetone, which were then mixed with nine volumes of water (H2O) containing 110 ppm Triton X-100. The fungicide solutions were applied onto wheat seedlings using an automated booth sprayer to run-off. All sprayed plants were allowed to air dry prior to further handling. All fungicides were evaluated using the aforementioned method for their activity vs. all target diseases, unless stated otherwise. Wheat leaf blotch and brown rust activity were also evaluated using track spray applications, in which case the fungicides were formulated as EC formulations, containing 0.1% Trycol 5941 in the spray solutions. Wheat plants (variety Yuma) were grown from seed in a greenhouse in 50% mineral soil/50% soil-less Metro mix until the first leaf was fully emerged, with 7-10 seedlings per pot. These plants were inoculated with an aqueous spore suspension of Septoria tritici either prior to or after fungicide treatments. After inoculation the plants were kept in 100% relative humidity (one day in a dark dew chamber followed by two to three days in a lighted dew chamber at 20° C.) to permit spores to germinate and infect the leaf. The plants were then transferred to a greenhouse set at 20° C. for disease to develop. When disease symptoms were fully expressed on the 1st leaves of untreated plants, infection levels were assessed on a scale of 0 to 100 percent disease severity. Percent disease control was calculated using the ratio of disease severity on treated plants relative to untreated plants.

[2] = tested on: Puccinia triticina; Synonym: Puccinia recondita f sp. tritici; assay: Wheat Brown Rust (PUCCRT) fungicidal activity on wheat seedlings; assay type: in vivo; settings: Low Volume, 121.5 g/H
Protocol: Technical grades of materials were dissolved in acetone, which were then mixed with nine volumes of water (H2O) containing 110 ppm Triton X-100. The fungicide solutions were applied onto wheat seedlings using an automated booth sprayer to run-off. All sprayed plants were allowed to air dry prior to further handling. All fungicides were evaluated using the aforementioned method for their activity vs. all target diseases, unless stated otherwise. Wheat leaf blotch and brown rust activity were also evaluated using track spray applications, in which case the fungicides were formulated as EC formulations, containing 0.1% Trycol 5941 in the spray solutions. Wheat plants (variety Yuma) were grown from seed in a greenhouse in 50% mineral soil/50% soil-less Metro mix until the first leaf was fully emerged, with 7-10 seedlings per pot. These plants were inoculated with an aqueous spore suspension of Septoria tritici either prior to or after fungicide treatments. After inoculation the plants were kept in 100% relative humidity (one day in a dark dew chamber followed by two to three days in a lighted dew chamber at 20° C.) to permit spores to germinate and infect the leaf. The plants were then transferred to a greenhouse set at 20° C. for disease to develop. When disease symptoms were fully expressed on the 1st leaves of untreated plants, infection levels were assessed on a scale of 0 to 100 percent disease severity. Percent disease control was calculated using the ratio of disease severity on treated plants relative to untreated plants. Example B: Evaluation of Fungicidal Activity: Wheat Brown Rust (Puccinia triticina; Synonym: Puccinia recondita f sp. tritici; Bayer code PUCCRT): Wheat plants (variety Yuma) were grown from seed in a greenhouse in 50% mineral soil/50% soil-less Metro mix until the first leaf was fully emerged, with 7-10 seedlings per pot. These plants were inoculated with an aqueous spore suspension of Puccinia triticina either prior to or after fungicide treatments. After inoculation the plants were kept in a dark dew room at 22° C. with 100% relative humidity overnight to permit spores to germinate and infect the leaf. The plants were then transferred to a greenhouse set at 24° C. for disease to develop. Fungicide formulation, application and disease assessment followed the procedures as described in the Example A.

[3] = 24 h, 1 Day Protectant, read-out: SEPTTR 1DP disease control
[4] = 72 h, 3 Day Curative, read-out: SEPTTR 3DC disease control
[5] = 24 h, 1 Day Protectant, read-out: PUCCRT 1DP disease control
[6] = 72 h, 3 Day Curative, read-out: PUCCRT 3DC disease control

| SMILES | pest or weed control at 121.5 g/ha [1, 3] [%] | pest or weed control at 121.5 g/ha [1, 4] [%] | pest or weed control at 121.5 g/ha [2, 5] [%] | pest or weed control at 121.5 g/ha [2, 6] [%] |
| --- | --- | --- | --- | --- |
| COc1ccnc(C(=O)N[C@@H](C)C(=O)O[C@@H](C)C(c2ccc(C)cc2)c2ccc(C)cc2)c1OC(C)=O [Cmpd 167] | > 80 | > 80 | > 80 | > 80 |
| COc1ccnc(C(=O)N[C@@H](C)C(=O)O[C@@H](C)C(c2ccc(C)cc2)c2ccc(C)cc2)c1OC(=O)C(C)C [Cmpd 168] | > 80 | > 80 | > 80 | < 80 |
| COc1ccnc(C(=O)N[C@@H](C)C(=O)O[C@@H](C)C(c2ccc(Br)cc2)c2ccc(Br)cc2)c1OCOC(C)=O [Cmpd 169] | > 80 | > 80 | > 80 | < 80 |
| COc1ccnc(C(=O)N[C@@H](C)C(=O)O[C@@H](C)C(c2ccc(C)s2)c2ccc(C)s2)c1OCOC(C)=O [Cmpd 170] | < 80 | < 80 | < 80 | < 80 |
| COc1ccnc(C(=O)N[C@@H](C)C(=O)O[C@@H](C)C(c2ccc(C)cc2)c2ccc(C)cc2)c1OCOC(C)=O [Cmpd 171] | > 80 | > 80 | > 80 | > 80 |
| COc1ccnc(C(=O)N[C@@H](C)C(=O)O[C@@H](C)[C@@H](c2ccccc2)c2ccc(C(F)(F)F)cc2)c1OC(C)=O [Cmpd 173] | > 80 | > 80 | > 80 | < 80 |
| COc1ccnc(C(=O)N[C@@H](C)C(=O)O[C@@H](C)[C@@H](c2ccccc2)c2ccc(C(F)(F)F)cc2)c1OCOC(C)=O [Cmpd 175] | > 80 | > 80 | > 80 | > 80 |
| CC(=O)OCOc1cccnc1C(=O)N[C@@H](C)C(=O)O[C@@H](C)C(c1ccc(F)cc1)c1ccc(F)cc1 [Cmpd 178] | > 80 | > 80 | < 80 |  |
| CCOc1ccnc(C(=O)N[C@@H](C)C(=O)O[C@@H](C)C(c2ccc(F)cc2)c2ccc(F)cc2)c1OCOC(C)=O [Cmpd 179] | > 80 | > 80 | < 80 |  |
| COc1ccnc(C(=O)N[C@@H](C)C(=O)O[C@@H](C)C(c2ccc(-c3ccccc3)cc2)c2ccc(-c3ccccc3)cc2)c1OC(C)=O [Cmpd 182] |  | < 80 |  | < 80 |
| COc1ccnc(C(=O)NCC(=O)O[C@@H](C)C(c2ccc(F)cc2)c2ccc(F)cc2)c1OCOC(C)=O [Cmpd 183] | > 80 | < 80 | > 80 | > 80 |
| CC[C@H](NC(=O)c1nccc(OC)c1OCOC(C)=O)C(=O)O[C@@H](C)C(c1ccc(F)cc1)c1ccc(F)cc1 [Cmpd 184] | > 80 | > 80 | > 80 | > 80 |
| COc1ccnc(C(=O)N[C@H](C(=O)O[C@@H](C)C(c2ccc(F)cc2)c2ccc(F)cc2)C(C)C)c1OCOC(C)=O [Cmpd 185] | > 80 | > 80 | > 80 | < 80 |
| COc1ccnc(C(=O)N[C@@H](CC(C)C)C(=O)O[C@@H](C)C(c2ccc(F)cc2)c2ccc(F)cc2)c1OCOC(C)=O [Cmpd 186] | > 80 | < 80 | < 80 |  |
| COc1ccnc(C(=O)NCC(=O)O[C@@H](C)C(c2ccc(F)cc2)c2ccc(F)cc2)c1OC(C)=O [Cmpd 187] | < 80 | < 80 | > 80 | < 80 |
| CC[C@H](NC(=O)c1nccc(OC)c1OC(C)=O)C(=O)O[C@@H](C)C(c1ccc(F)cc1)c1ccc(F)cc1 [Cmpd 188] | > 80 | > 80 | > 80 | < 80 |
| COc1ccnc(C(=O)N[C@H](C(=O)O[C@@H](C)C(c2ccc(F)cc2)c2ccc(F)cc2)C(C)C)c1OC(C)=O [Cmpd 189] | > 80 | > 80 | > 80 | < 80 |
| COc1ccnc(C(=O)N[C@@H](CC(C)C)C(=O)O[C@@H](C)C(c2ccc(F)cc2)c2ccc(F)cc2)c1OC(C)=O [Cmpd 190] | < 80 | < 80 | < 80 |  |
| COc1ccccc1C(c1ccccc1OC)[C@H](C)OC(=O)[C@H](C)NC(=O)c1nccc(OC)c1OCOC(C)=O [Cmpd 191] | > 80 | > 80 | > 80 | > 80 |
| COc1cccc(C(c2cccc(OC)c2)[C@H](C)OC(=O)[C@H](C)NC(=O)c2nccc(OC)c2OCOC(C)=O)c1 [Cmpd 192] | > 80 | > 80 | > 80 | > 80 |
| COc1ccnc(C(=O)N[C@@H](C)C(=O)O[C@@H](C)C(O)(c2ccc(Cl)cc2F)c2ccc(Cl)cc2F)c1OCOC(C)=O [Cmpd 193] | > 80 | > 80 | < 80 |  |
| COc1ccnc(C(=O)N[C@@H](C)C(=O)O[C@@H](C)C(c2ccc(C)c(F)c2)c2ccc(C)c(F)c2)c1OCOC(C)=O [Cmpd 194] | > 80 | > 80 | > 80 | < 80 |
| COc1ccnc(C(=O)N[C@@H](C)C(=O)O[C@@H](C)C(c2ccc(C)c(Cl)c2)c2ccc(C)c(Cl)c2)c1OCOC(C)=O [Cmpd 195] | > 80 | < 80 | > 80 | < 80 |
| C#Cc1ccc(C(c2ccc(C#C)cc2)[C@H](C)OC(=O)[C@H](C)NC(=O)c2nccc(OC)c2OCOC(C)=O)cc1 [Cmpd 197] | > 80 | > 80 | > 80 | > 80 |
| CCc1ccc(C(c2ccc(CC)cc2)[C@H](C)OC(=O)[C@H](C)NC(=O)c2nccc(OC)c2OCOC(C)=O)cc1 [Cmpd 198] | > 80 | > 80 | > 80 | < 80 |
| COc1ccnc(C(=O)N[C@@H](C)C(=O)O[C@@H](C)[C@@H](c2ccccc2)c2ccc(F)cc2)c1OCOC(C)=O [Cmpd 199] | > 80 | > 80 | > 80 | > 80 |
| COc1ccnc(C(=O)N[C@@H](C)C(=O)O[C@@H](C)C(O)(c2ccc(Cl)c(Cl)c2)c2ccc(Cl)c(Cl)c2)c1OCOC(C)=O [Cmpd 201] | > 80 | > 80 | < 80 |  |
